Read-outs that look alike come from different tables or passages of the source.

Series [1] has as its system oral epidermoid carcinoma KB cells. In words: In vitro cell growth inhibition, methylene blue dye assay, KB cells. Type of series: cell-based, Human. As to conditions: Homo sapiens. How it is done: (§1) Human oral epidermoid carcinoma KB cells, non-small-cell lung carcinoma H460 cells, colorectal carcinoma HT29 cells and stomach carcinoma MKN45 cells were maintained in RMPI-1640 medium supplied with 5% fetal bovine serum (FBS). […] Cells in logarithmic phase were cultured at a density of 5000 cells/mL/well in a 24-well plate. KB-VIN10 cells were cultured in drug-free medium for 3 days prior to use. The cells were exposed to various concentrations of the test drugs for 72 hours. The methylene blue dye assay was used to evaluate the effect of the test compounds on cell growth (Finlay et al., 1984).

Series [2] deals with colorectal carcinoma HT29 cells. In words: In vitro cell growth inhibition, methylene blue dye assay, HT29 cells. As to conditions: Homo sapiens, read-out: IC50 on the proliferation of cells, HT29. Type of series: cell-based, Human. How it is done: as §1
Series [3] relates to stomach carcinoma MKN45 cells. In words: In vitro cell growth inhibition, methylene blue dye assay, MKN45 cells. The series is classed as cell-based, Human. As to conditions: Homo sapiens, read-out: IC50 on the proliferation of cells, MKN45. How it is done:
as §1

Series [4] deals with non-small-cell lung carcinoma H460 cells. In words: In vitro cell growth inhibition, methylene blue dye assay, H460 cells. Type of series: cell-based, Human. Particulars: Homo sapiens, read-out: IC50 on the proliferation of cells, H460. The method, then: as §1
In series [5] the test system is KB-VIN10 cells (overexpression of P-gp170/MDR). In words: In vitro cell growth inhibition, methylene blue dye assay, MDR-positive KB-VIN10 cells. The series is classed as cell-based, Human. Particulars: Homo sapiens, read-out: IC50 on the proliferation of cells, KB-VIN10. How it is done: as §1
The subject of series [6] is five cancer cell lines (KB, H460, HT29, MKN45, KB-VIN10). The series can be described thus: Antiproliferative activity, mean over five cancer cell lines. The series is classed as cell-based, Human. How it is done:
The synthesized compounds 5 to 17 were evaluated for antiproliferative activities against four carcinoma cells, oral epidermoid carcinoma KB cells, non-small-cell lung carcinoma H460 cells, colorectal carcinoma HT29 cells and stomach carcinoma MKN45 cells, as well as the MDR-positive cell lines KB-VIN10, that overexpressed P-gp 170/MDR (Table 1). The controls were compounds 1 and 3.
as §1

The mark [7] stands for this setting: read-out: 50% Inhibition concentration (IC50) on the proliferation of KB cells line, Table 2, KB cells.
The mark [8] stands for this setting: KB cells, 72 hours, mean ± SD, read-out: IC50 on the proliferation of cells, KB.
Setting [9] is: HT-29, HT29 cells, 72 hours, mean ± SD.
Setting [10] is: MKN-45, MKN45 cells, 72 hours, mean ± SD.
Where [11] appears, read: NCI-H460, H460 cells, 72 hours, mean ± SD.
[12] abbreviates: KB-VIN10 cells, 72 hours, mean ± SD.

The term melting point denotes the temperature, or range, at which the solid turns liquid. Compound `COc1cc(C(=O)c2ccc3c(Cl)c(OC)ccc3n2)cc(OC)c1OC` [Compound 47, 5-chloro-6-methoxy-2-(3′,4′,5′-trimethoxybenzoyl)quinoline] registered a melting point of 176 to 177 °C. In series [1] (setting [7]), the IC50 stood at 45 nM.
`COc1cc(C(=O)c2cnc3ccccc3c2)cc(OC)c1OC` [Compound 6, 3-(3′,4′,5′-trimethoxybenzoyl)quinoline] had a melting point of 107 to 109 °C. The IC50 in series [1] (setting [8]) amounted to 1800 ± 100 nM. In series [2] (setting [9]), the IC50 worked out at 1000 ± 210 nM. Moreover, in series [3] (setting [10]), the IC50 was determined as 562 ± 42 nM. Further, the IC50 in series [4] (setting [11]) is 1600 ± 380 nM. The IC50 in series [5] (setting [12]) is 1100 ± 220 nM.
In the case of `COc1cc(C(=O)c2ccc3c(C#CC(C)(C)O)c(OC)ccc3n2)cc(OC)c1OC` [Compound 44, 5-(3″-hydroxy-3″-methylbut-1″-ynyl)-6-methoxy-2-(3′,4′,5′-trimethoxybenzoyl)quinoline], the melting point is 151 to 153 °C. In series [1] (setting [7]), the IC50 came to 495 nM.
The compound `COc1ccc(C(=O)c2ccc3c(OC)c(OC)c(OC)cc3n2)cc1` [Compound 49, 2-(4′-methoxybenzoyl)-5,6,7-trimethoxyquinoline] yielded a melting point of 103 to 105 °C. Moreover, the IC50 in series [1] (setting [7]) was greater than 1000 nM.
`COc1cc(C(=O)c2ccnc3c(OC)cccc23)cc(OC)c1OC` [Compound 13, 8-methoxy-4-(3′,4′,5′-trimethoxybenzoyl)quinoline] showed a melting point of 162.5 to 164.1 °C. Besides, in series [1] (setting [8]), the IC50 came out at 155 ± 15.1 nM. Moreover, the IC50 in series [2] (setting [9]) stood at 162 ± 28.7 nM. Also, the “cytotoxicity / antiproliferative activity in words” value in series [6] was “over an order of magnitude increase in activity over the parental compound 7”. In series [6] (Homo sapiens, mean of KB, H460, HT29, MKN45, KB-VIN10, read-out: mean IC50 value against five cancer cell lines), the IC50 is 164 nM. Also, in series [3] (setting [10]), the IC50 worked out at 147 ± 25.4 nM. Further, the IC50 in series [4] (setting [11]) turned out to be 193 ± 35.3 nM. In series [5] (setting [12]), the IC50 was found to be 165 ± 33 nM.
With `COc1cc(-c2ccc3c(N)c(OC)ccc3n2)cc(OC)c1OC` [Compound 58, 5-amino-6-methoxy-2-(3′,4′,5′-trimethoxyphenyl)quinoline], the melting point was in the range of 222 to 223 °C. Moreover, the IC50 in series [1] (setting [7]) was greater than 10000 nM.
Compound `COc1cc(C(=O)c2cccc3ncccc23)cc(OC)c1OC` [Compound 8, 5-(3′,4′,5′-trimethoxybenzoyl)quinoline] had a melting point of 145 to 147 °C. The IC50 in series [1] (setting [8]) was found to be 2900 ± 400 nM. Besides, in series [2] (setting [9]), the IC50 was 2800 ± 310 nM. The IC50 in series [3] (setting [10]) was found to be 1200 ± 150 nM. In addition, the IC50 in series [4] (setting [11]) stood at 3800 ± 620 nM. Also, the IC50 in series [5] (setting [12]) worked out at 2300 ± 400 nM.
The compound `COc1cc(C(=O)c2ccnc3ccccc23)cc(OC)c1OC` [Compound 7, 4-(3′,4′,5′-trimethoxybenzoyl)quinoline] had a melting point of 109 to 110 °C. The IC50 in series [1] (KB, 72 h, read-out: IC50 on the proliferation of cells, KB) amounted to 3500 ± 700 nM. Further, in series [2] (HT-29, 72 h), the IC50 worked out at 2300 ± 480 nM. In addition, in series [3] (MKN-45, 72 h), the IC50 came out at 920 ± 90 nM. Also, the IC50 in series [4] (NCI-H460, 72 h) was determined as 3800 ± 520 nM. In series [5] (KB-VIN10, 72 h), the IC50 stood at 2200 ± 600 nM.
Take `COc1ccc(C(=O)c2ccnc3c(OC)c(OC)c(OC)cc23)cc1` [Compound 54, 4-(4′-methoxybenzoyl)-6,7,8-trimethoxyquinoline]: in series [1] (setting [7]), the IC50 worked out at 1300 nM.
For `COc1cc2nc(C(=O)c3ccc(F)cc3)ccc2c(OC)c1OC` [Compound 51, 2-(4′-fluorobenzoyl)-5,6,7-trimethoxyquinoline], the melting point was 145 to 146 °C.
As for `COc1cc(C(=O)c2cccc3cccnc23)cc(OC)c1OC` [Compound 11, 8-(3′,4′,5′-trimethoxybenzoyl)quinoline], the melting point lay within 153 to 155 °C. Besides, the IC50 in series [1] (setting [8]) is 8100 ± 700 nM. Besides, in series [2] (setting [9]), the IC50 is 4500 ± 1100 nM. For the same compound, the IC50 in series [3] (setting [10]) is 3200 ± 700 nM. For the same compound, the IC50 in series [4] (setting [11]) was 5000 ± 920 nM. The IC50 in series [5] (setting [12]) was 6000 ± 800 nM.
Compound `COc1cc(C(=O)c2ccc3c(I)c(OC)ccc3n2)cc(OC)c1OC` [Compound 34, 5-iodo-6-methoxy-2-(3′,4′,5′-trimethoxybenzoyl)quinoline] had a melting point of 202 to 204 °C. Further, the IC50 in series [1] (setting [7]) worked out at 451 nM.
Turning to `COc1cc(Sc2ccc3c(N)c(OC)ccc3n2)cc(OC)c1OC` [Compound 82, 5-amino-6-methoxy-2-(3′,4′,5′-trimethoxyphenylthio)quinoline], the IC50 in series [1] (setting [7]) was less than 10 nM.
`COc1cc2nc(-c3ccc(N(C)C)cc3)ccc2c(OC)c1OC` [Compound 65, 2-[4′-(N,N-dimethylamino)phenyl]-5,6,7-trimethoxyquinoline] displayed a melting point of 154 to 155 °C. For the same compound, in series [1] (setting [7]), the IC50 was greater than 10000 nM.
The like results for `COc1cc(C(=O)c2ccc3c(C#N)c(OC)ccc3n2)cc(OC)c1OC` [Compound 43, 5-cyano-6-methoxy-2-(3′,4′,5′-trimethoxybenzoyl)quinoline] were, in that order, 191 to 192 °C and 17 nM.
Consider `COc1cc(C(=O)c2ccc3c(-c4ccc(O)cc4)c(OC)ccc3n2)cc(OC)c1OC` [Compound 30, 5-(4″-hydroxyphenyl)-6-methoxy-2-(3′,4′,5′-trimethoxybenzoyl)quinoline], for which the melting point is 201 to 203 °C. Besides, the IC50 in series [1] (setting [7]) was greater than 10000 nM.
The like results for `COc1ccc(-c2ccc3c(OC)c(OC)c(OC)cc3n2)cc1` [Compound 64, 2-(4′-methoxyphenyl)-5,6,7-trimethoxyquinoline] were, in that order, 136 to 137 °C and greater than 10000 nM.
On to `COc1cc(C(=O)c2ccc3nccnc3c2)cc(OC)c1OC` [Compound 75, 6-(3′,4′,5′-trimethoxybenzoyl)quinoxaline], for which the melting point was 149 to 151 °C.
`COc1cc(S(=O)(=O)c2ccc3c(N)c(OC)ccc3n2)cc(OC)c1OC` [Compound 84, 5-amino-6-methoxy-2-(3′,4′,5′-trimethoxyphenylsulfonyl)quinoline]: the IC50 in series [1] (setting [7]) is less than 10 nM.
`COc1ccc(C(=O)c2ccnc3c(OC)c(OC)c(OC)cc23)cc1F` [Compound 67, 4-(3′-fluoro-4′-methoxybenzoyl)-6,7,8-trimethoxyquinoline] yielded a melting point of 117 to 118 °C. Further, in series [1] (setting [7]), the IC50 came out at 1670 nM.
On the same counts, the results for `COc1cc(C(=O)c2ccc3c(Br)c(OC)ccc3n2)cc(OC)c1OC` [Compound 42, 5-bromo-6-methoxy-2-(3′,4′,5′-trimethoxybenzoyl)quinoline] are 163 to 165 °C and 108 nM.
On the same counts, the results for `COc1cc(C(=O)c2ccc3c(-c4ccncc4)c(OC)ccc3n2)cc(OC)c1OC` [Compound 33, 6-methoxy-5-pyridinyl-2-(3′,4′,5′-trimethoxybenzoyl)quinoline] are 203 to 205 °C and 472 nM.
Turning to `COc1cc(C(=O)c2ccc3c(O)c(OC)ccc3n2)cc(OC)c1O` [Compound 87, 5-hydroxy-6-methoxy-2-(4′-hydroxy-3′,5′-dimethoxybenzoyl)quinoline], the IC50 in series [1] (setting [7]) was 471 nM.
Compound `COc1cc(Nc2ccc3c(N)c(OC)ccc3n2)cc(OC)c1OC` [Compound 62, 5-amino-6-methoxy-2-(3′,4′,5′-trimethoxyphenylamino)quinoline] returned a melting point of 222 to 223 °C. Moreover, the IC50 in series [1] (setting [7]) was greater than 10000 nM.
With `COc1cc2c(C(=O)c3ccc(N(C)C)cc3)ccnc2c(OC)c1OC` [Compound 68, 4-[4′-(N,N-dimethyl)-benzoyl]-6,7,8-trimethoxyquinoline], the IC50 in series [1] (setting [7]) is 226 nM.
The compound `COc1ccc(C(=O)c2ccc3c(OC)c(OC)c(OC)cc3n2)cc1F` [Compound 50, 2-(3′-fluoro-4′-methoxybenzoyl)-5,6,7-trimethoxyquinoline] yielded a melting point of 137 to 139 °C. Besides, the IC50 in series [1] (setting [7]) is greater than 10000 nM.
`COc1cc(Oc2ccc3c(N)c(OC)ccc3n2)cc(OC)c1OC` [Compound 60, 5-amino-6-methoxy-2-(3′,4′,5′-trimethoxyphenoxy)quinoline] yielded a melting point of 209 to 210 °C.
`COc1ccc(-c2ccc3c(OC)c(OC)c(OC)cc3n2)cc1F` [Compound 66, 2-(3′-fluoro-4′-methoxyphenyl)-5,6,7-trimethoxyquinoline] registered a melting point of 129 to 130 °C. In series [1] (setting [7]), the IC50 was greater than 10000 nM.

The values are drawn from patent US20110275643A1, “AROYLQUINOLINE COMPOUNDS” (NATIONAL HEALTH RESEARCH INSTITUTES, priority 2010, published 2011).
